Literature values in PMC7479006, “Effect of high-fat diet on the pharmacokinetics and safety of flumatinib in healthy Chinese subjects” (Cancer Chemotherapy and Pharmacology, 2020).

How the values were obtained:
[1] = set-up: method as in PMID 26096139; details: healthy subjects; cited from earlier work
[2] = set-up: method as in PMID 18024884; details: cited from earlier work
[3] = set-up: method as in PMID 25511575; details: healthy subjects; cited from earlier work

Compound: N#Cc1ccnc(N2C(=O)CC[C@H]2C(=O)N(c2cncc(F)c2)[C@H](C(=O)NC2CC(F)(F)C2)c2ccccc2Cl)c1 [ivosidenib]
- Increase in Cmax after a high-fat diet compared to fasting [1]: 98%

Compound: CS(=O)(=O)CCNCc1ccc(-c2ccc3ncnc(Nc4ccc(OCc5cccc(F)c5)c(Cl)c4)c3c2)o1 [lapatinib]
- Increase in bioavailability after high-fat diet [2]: 325%
- Increase in bioavailability after low-fat diet [2]: 167%

Compound: Cc1cn(-c2cc(NC(=O)c3ccc(C)c(Nc4nccc(-c5cccnc5)n4)c3)cc(C(F)(F)F)c2)cn1 [nilotinib]
- AUC higher when taken with food than fasting [3]: 82%
- Cmax higher when taken with food than fasting [3]: 112%
